Patent US10005768B2, “Carboxamide derivatives and use thereof” (Purdue Pharma L.P., priority 2013, dated 2018)

Target: human Nav1.7 (Homo sapiens (Human), UniProt Q15858)
Experiment: FLIPR sodium dye assay (CoroNa Green AM Na+ dye, primary fluorescence assay)
Type: cell-based
Settings: recombinant Nav1.7/HEK293 cells
Protocol: In vitro assays were performed in a recombinant cell line expressing cDNA encoding the alpha subunit (Nav1.7, SCN9a, PN1, NE) of human Nav1.7 (Accession No. NM_002977). The cell line was provided by investigators at Yale University (Cummins et al, J. Neurosci. 18(23): 9607-9619 (1998)). For dominant selection of the Nav1.7-expressing clones, the expression plasmid co-expressed the neomycin resistance gene. The cell line was constructed in the human embryonic kidney cell line, HEK293, under the influence of the CMV […] promoter, and stable clones were selected using limiting dilution cloning and antibiotic selection using the neomycin analogue, G418. Recombinant beta and gamma subunits were not introduced into this cell line. Additional cell lines expressing recombinant Nav1.7 cloned from other species can also be used, alone or in combination with various beta subunits, gamma subunits or chaperones.
Unless otherwise noted, cell culture reagents were purchased from Mediatech of Herndon, Va. The recombinant Nav1.7/HEK293 cells were routinely cultured in growth medium consisting of Dulbecco's […] essential medium containing 10% fetal bovine serum (FBS, Hyclone, Thermo Fisher Scientific, Logan, Utah), 100 U/mL penicillin, 100 μg/mL streptomycin, 2-4 mM L-glutamine, and […] G418. For natural, non-recombinant cell lines, the selective antibiotic was omitted, and additional media formulations can be applied as needed.
The final buffer consisted of 20 mM Hepes, pH 7.3, 1.261 mM CaCl2, 0.493 mM MgCl2, 0.407 mM Mg(SO)4, 5.33 mM KCl, 0.441 mM KH2PO4, 137 mM NaCl, 0.336 mM Na2HPO4 and […] D-glucose (Hanks et al., Proc. Soc. Exp. Biol. Med. 71:196 (1949)), and the simple formulation was typically the basic buffer throughout the assay (i.e., all wash and addition steps).
The fluorescence indicator used in the primary fluorescence assay was the cell permeant version of CoroNa™ Green (Invitrogen, Molecular Probes, Eugene, Oreg.), a dye that emits light in the fluorescence range (Harootunian et al., J. Biol. Chem. 264(32):19458-19467 (1989)). The intensity of this emission, but not the wavelength range, is increased when the dye is exposed to Na^+ ions, which it can bind with partial selectivity. Cells expressing Nav1.7 or other sodium channels were loaded with the CoroNa™ Green dye immediately in advance of the fluorescence assay, and then, after agonist stimulation, the mobilization of Na^+ ions was detected as the Na^+ ions flowed from the extracellular fluid into the cytoplasm through the activated sodium channel pores. The dye was stored in the dark as a lyophilized powder, and then an aliquot was dissolved immediately before the cell loading procedure, according to the instructions of the manufacturer, to a stock concentration of 10 mM in DMSO. It was then diluted in the assay buffer to a 4× concentrated working solution, so that the final concentration of dye in the cell loading buffer was 5 μM.
In the fluorescence assays, two agonists were used in combination, namely 1) veratridine; and 2) the venom from the yellow scorpion, Leiurus quinquestriatus hebraeus. Veratridine is an alkaloid small molecule that facilitates the capture of channel openings by inhibiting inactivation, and the scorpion venom is a natural preparation that includes peptide toxins selective for different subsets of voltage-gated sodium channels. These scorpion toxins inhibit the fast inactivation of their cognate target channels. Stock solutions of the agonists were prepared to 40 mM in DMSO (veratridine) and 1 mg/mL in dH2O (scorpion venom), and then diluted to make a 4× or 2× stock (depending on the particular assay) in assay buffer, the final concentration being 100 μM (veratridine) and 10 μg/mL (scorpion venom). Both of the agonists were purchased from Sigma Aldrich, St. Louis, Mo.
Test compounds were dissolved in DMSO to yield 10 mM stock solutions. […]

Chain of human Nav1.7 (Q15858 other isoform, or with tags, fused parts or gaps): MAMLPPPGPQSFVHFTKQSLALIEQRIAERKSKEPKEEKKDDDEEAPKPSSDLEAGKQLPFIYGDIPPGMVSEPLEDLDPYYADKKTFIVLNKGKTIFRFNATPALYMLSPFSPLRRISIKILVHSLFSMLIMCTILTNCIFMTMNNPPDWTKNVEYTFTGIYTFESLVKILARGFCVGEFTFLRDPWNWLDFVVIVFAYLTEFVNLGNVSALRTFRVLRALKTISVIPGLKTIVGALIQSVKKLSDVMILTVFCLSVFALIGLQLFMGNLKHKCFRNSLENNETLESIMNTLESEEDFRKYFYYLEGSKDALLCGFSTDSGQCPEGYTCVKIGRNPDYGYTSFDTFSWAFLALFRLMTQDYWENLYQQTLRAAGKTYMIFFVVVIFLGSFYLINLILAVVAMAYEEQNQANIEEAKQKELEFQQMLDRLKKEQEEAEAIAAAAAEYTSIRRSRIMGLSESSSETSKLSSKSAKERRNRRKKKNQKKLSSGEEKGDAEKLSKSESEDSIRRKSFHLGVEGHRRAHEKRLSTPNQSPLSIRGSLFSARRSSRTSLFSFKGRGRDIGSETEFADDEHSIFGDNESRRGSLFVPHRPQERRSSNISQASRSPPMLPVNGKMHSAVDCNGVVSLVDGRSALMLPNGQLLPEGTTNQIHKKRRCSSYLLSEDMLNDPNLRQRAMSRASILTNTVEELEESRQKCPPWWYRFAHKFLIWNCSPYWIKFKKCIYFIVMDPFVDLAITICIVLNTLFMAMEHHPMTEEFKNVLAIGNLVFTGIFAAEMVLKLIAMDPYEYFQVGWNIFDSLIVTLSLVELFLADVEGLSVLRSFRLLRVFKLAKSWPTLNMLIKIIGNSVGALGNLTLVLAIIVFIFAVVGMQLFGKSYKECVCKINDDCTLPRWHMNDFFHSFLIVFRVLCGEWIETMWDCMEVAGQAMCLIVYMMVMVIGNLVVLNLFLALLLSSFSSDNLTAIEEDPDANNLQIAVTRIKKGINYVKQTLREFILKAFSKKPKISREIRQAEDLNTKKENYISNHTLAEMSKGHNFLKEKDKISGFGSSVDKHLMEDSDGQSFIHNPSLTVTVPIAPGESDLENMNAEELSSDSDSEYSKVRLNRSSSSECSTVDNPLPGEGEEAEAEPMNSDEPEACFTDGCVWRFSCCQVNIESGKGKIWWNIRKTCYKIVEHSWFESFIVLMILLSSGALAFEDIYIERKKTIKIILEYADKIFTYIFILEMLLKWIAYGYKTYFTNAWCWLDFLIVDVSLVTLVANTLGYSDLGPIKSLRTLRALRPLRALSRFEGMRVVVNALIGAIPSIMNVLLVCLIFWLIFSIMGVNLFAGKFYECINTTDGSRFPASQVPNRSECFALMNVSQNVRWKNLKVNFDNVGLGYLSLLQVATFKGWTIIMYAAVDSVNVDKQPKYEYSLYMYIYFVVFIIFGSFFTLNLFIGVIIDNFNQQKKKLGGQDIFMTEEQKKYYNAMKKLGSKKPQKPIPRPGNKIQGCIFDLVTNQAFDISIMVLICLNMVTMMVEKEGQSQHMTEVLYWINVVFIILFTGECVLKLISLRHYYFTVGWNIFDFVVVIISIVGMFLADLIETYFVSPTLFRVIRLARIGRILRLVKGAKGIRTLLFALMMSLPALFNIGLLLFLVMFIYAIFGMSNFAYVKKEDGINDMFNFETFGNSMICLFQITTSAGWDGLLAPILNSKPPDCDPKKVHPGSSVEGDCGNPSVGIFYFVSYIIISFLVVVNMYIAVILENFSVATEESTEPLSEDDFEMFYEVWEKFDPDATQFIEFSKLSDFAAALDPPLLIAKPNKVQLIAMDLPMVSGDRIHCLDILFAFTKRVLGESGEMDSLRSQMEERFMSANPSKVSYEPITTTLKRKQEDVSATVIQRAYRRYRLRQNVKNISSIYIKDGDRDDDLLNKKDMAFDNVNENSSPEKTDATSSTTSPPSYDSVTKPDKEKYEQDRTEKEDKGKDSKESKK

Structure (SMILES)	IC50
CN1CCN(Cc2cc(C(F)(F)F)ccc2Oc2ccc(-c3cccc(C(N)=O)n3)cc2)CC1 [compound 33, 6-(4-(2-((4-methylpiperazin-1-yl)methyl)-4-(trifluoromethyl)-phenoxy)phenyl)picolinamide]	0.221 ± 0.049 µM
NC(=O)c1cccc(-c2ccc(Oc3ccc(C(F)(F)F)cc3CNCCN3CCNC3=O)cc2)n1 [compound 34, 6-(4-(2-(((2-(2-oxoimidazolidin-1-yl)ethyl)amino)methyl)-4-(trifluoromethyl)phenoxy)phenyl) picolinamide]	1.77 ± 0.57 µM
NC(=O)c1cccc(-c2ccc(Oc3ccc(C(F)(F)F)cc3CN3CCNC(=O)C3)cc2)n1 [compound 35, 6-(4-(2-((3-oxopiperazin-1-yl)methyl)-4-(trifluoromethyl)-phenoxy)phenyl)picolinamide]	0.141 ± 0.022 µM
NC(=O)c1cccc(-c2ccc(Oc3ccc(C(F)(F)F)cc3CN3CC[C@H](O)C3)cc2)n1 [compound 36, (S)-6-(4-(2-((3-hydroxypyrrolidin-1-yl)methyl)-4-(trifluoromethyl)-phenoxy)phenyl)picolinamide]	0.432 ± 0.131 µM
CN(C)CCN(C)Cc1cc(C(F)(F)F)ccc1Oc1ccc(-c2cccc(C(N)=O)n2)cc1 [compound 37, 6-(4-(2-(((2-(dimethylamino)-ethyl)(methyl)amino)methyl)-4-(trifluoromethyl)phenoxy)-phenyl)picolinamide]	1.07 ± 0.117 µM
CN(C)CCCNCc1cc(C(F)(F)F)ccc1Oc1ccc(-c2cccc(C(N)=O)n2)cc1 [compound 38, 6-(4-(2-(((3-(dimethylamino)-propyl)amino)methyl)-4-(trifluoromethyl)phenoxy)phenyl) picolinamide]	1.69 ± 0.157 µM
CN(C)Cc1cc(C(F)(F)F)ccc1Oc1ccc(-c2cccc(C(N)=O)n2)cc1 [compound 39, 6-(4-(2-((dimethylamino)methyl)-4-(trifluoromethyl)phenoxy)-phenyl)picolinamide]	0.179 ± 0.034 µM
NC(=O)c1cccc(-c2ccc(Oc3ccc(C(F)(F)F)cc3CNCCO)cc2)n1 [compound 40, 6-(4-(2-(((2-hydroxyethyl)-amino)methyl)-4-(trifluoro-methyl)phenoxy)phenyl)picolin-amide]	1.68 ± 0.177 µM
NC(=O)c1cccc(-c2ccc(Oc3ccc(C(F)(F)F)cc3CN3CCC[C@H]3CO)cc2)n1 [compound 41, (S)-6-(4-(2-((2-(hydroxyl-methyl)pyrrolidin-1-yl)methyl)-4-(trifluoromethyl)phenoxy)phenyl) picolinamide]	1.13 ± 0.1 µM
NC(=O)c1cccc(-c2ccc(Oc3ccc(C(F)(F)F)cc3CN3CCC[C@@H]3CO)cc2)n1 [compound 42, (R)-6-(4-(2-((2-(hydroxyl-methyl)pyrrolidin-1-yl)methyl)-4-(trifluoromethyl)phenoxy)phenyl) picolinamide]	1.17 ± 0.186 µM
NC(=O)c1cccc(-c2ccc(Oc3ccc(C(F)(F)F)cc3CN3CCOCC3)cc2)n1 [compound 43, 6-(4-(2-(morpholinomethyl)-4-(trifluoromethyl)phenoxy)phenyl) picolinamide]	0.223 ± 0.018 µM
NC(=O)c1cccc(-c2ccc(Oc3ccc(C(F)(F)F)cc3CN3CCC[C@H]3C(N)=O)cc2)n1 [compound 44, (S)-6-(4-(2-((2-carbamoyl-pyrrolidin-1-yl)methyl)-4-(trifluoromethyl)phenoxy)phenyl) picolinamide]	1.16 ± 0.076 µM
NC(=O)c1cccc(-c2ccc(Oc3ccc(C(F)(F)F)cc3CN3CCC(F)(F)C3)cc2)n1 [compound 45, 6-(4-(2-((3,3-difluoropyrrolidin-1-yl)methyl)-4-(trifluoromethyl)phenoxy)phenyl) picolinamide]	0.113 ± 0.034 µM
NC(=O)c1cccc(-c2ccc(Oc3ccc(C(F)(F)F)cc3CN[C@H]3CCNC3=O)cc2)n1 [compound 46, (S)-6-(4-(2-(((2-oxopyrrolidin-3-yl)amino)methyl)-4-(trifluoro-methyl)phenoxy)phenyl)picolin-amide]	2.58 ± 0.692 µM
CC(C)(C)OC(=O)NC1CCN(Cc2cc(C(F)(F)F)ccc2Oc2ccc(-c3cccc(C(N)=O)n3)cc2)C1 (stereo not drawn) [compound 47, tert-butyl (1-(2-(4-(6-carbamoylpyridin-2-yl)phenoxy)-5-(trifluoromethyl)-benzyl)pyrrolidin-3-yl)carbamate]	0.949 ± 0.168 µM
CC(C)(C)OC(=O)N1CCC(NCc2cc(C(F)(F)F)ccc2Oc2ccc(-c3cccc(C(N)=O)n3)cc2)C1 (stereo not drawn) [compound 48, tert-butyl 3-((2-(4-(6-carbamoylpyridin-2-yl)phenoxy)-5-(trifluoromethyl)benzyl)-amino)pyrrolidine-1-carboxylate]	0.913 ± 0.016 µM
NC(=O)c1cccc(-c2ccc(Oc3ccc(C(F)(F)F)cc3CN3CCCCC3)cc2)n1 [compound 49, 6-(4-(2-(piperidin-1-ylmethyl)-4-(trifluoromethyl)phenoxy)phenyl) picolinamide]	0.096 ± 0.01 µM
NC(=O)c1cccc(-c2ccc(Oc3ccc(C(F)(F)F)cc3CN3CCC3)cc2)n1 [compound 50, 6-(4-(2-(azetidin-1-ylmethyl)-4-(trifluoromethyl)phenoxy)phenyl) picolinamide]	0.768 ± 0.051 µM
NC(=O)c1cccc(-c2ccc(Oc3ccc(C(F)(F)F)cc3CN3CCCC(O)C3)cc2)n1 (stereo not drawn) [compound 51, 6-(4-(2-((3-hydroxypiperidin-1-yl)methyl)-4-(trifluoromethyl)-phenoxy)phenyl)picolinamide]	0.566 ± 0.062 µM
CN(CCO)Cc1cc(C(F)(F)F)ccc1Oc1ccc(-c2cccc(C(N)=O)n2)cc1 [compound 52, 6-(4-(2-(((2-hydroxyethyl)-(methyl)amino)methyl)-4-(trifluoromethyl)phenoxy)phenyl) picolinamide]	1.1 ± 0.107 µM
NC(=O)c1cccc(-c2ccc(Oc3ccc(C(F)(F)F)c(CN4CCC4)c3)cc2)n1 [compound 53, 6-(4-(3-(azetidin-1-ylmethyl)-4-(trifluoromethyl)phenoxy)phenyl) picolinamide]	0.384 ± 0.106 µM
NC(=O)c1cccc(-c2ccc(Oc3ccc(C(F)(F)F)c(CN4CC[C@H](O)C4)c3)cc2)n1 [compound 54, (S)-6-(4-(3-((3-hydroxy-pyrrolidin-1-yl)methyl)-4-(trifluoromethyl)phenoxy)-phenyl)picolinamide]	0.366 ± 0.085 µM
NC(=O)c1cccc(-c2ccc(Oc3ccc(C(F)(F)F)c(CNCCC(F)(F)F)c3)cc2)n1 [compound 55, 6-(4-(4-(trifluoromethyl)-3-(((3,3,3-trifluoropropyl)amino)-methyl)phenoxy)phenyl)picolin-amide]	0.174 ± 0.018 µM
NC(=O)c1cccc(-c2ccc(Oc3ccc(C(F)(F)F)c(CN4CCCC4)c3)cc2)n1 [compound 56, 6-(4-(3-(pyrrolidin-1-ylmethyl)-4-(trifluoromethyl)phenoxy)phenyl) picolinamide]	0.173 ± 0.033 µM
CC(c1cc(C(F)(F)F)ccc1Oc1ccc(-c2cccc(C(N)=O)n2)cc1)N1CCCC1 (stereo not drawn) [compound 58, 6-(4-(2-(1-(pyrrolidin-1-yl)ethyl)-4-(trifluoromethyl)phenoxy)-phenyl)picolinamide]	0.231 ± 0.008 µM
NC(=O)c1cccc(-c2ccc(Oc3cccc(CN4CCCC4)n3)cc2)n1 [compound 59, 6-(4-((6-(pyrrolidin-1-ylmethyl)pyridin-2-yl)oxy)phenyl)picolinamide]	> 20 µM
NC(=O)c1cccc(-c2ccc(Oc3ccc(C(F)(F)F)cc3CN3CCC(N)C3)cc2)n1 (stereo not drawn) [compound 60, 6-(4-(2-((3-aminopyrrolidin-1-yl)methyl)-4-(trifluoromethyl)-phenoxy)phenyl)picolinamide]	1.85 ± 0.361 µM
